According to paper PMC4648589, “Selection of an HLA-C*03:04-Restricted HIV-1 p24 Gag Sequence Variant Is Associated with Viral Escape from KIR2DL3+ Natural Killer Cells: Data from an Observational Cohort in South Africa” (PLoS Medicine, 2015):
“And” between values parts separate entries of the source, which are not always exact repeats. Identical values can stand only once.

Assays:
HLA-C*03:04 = HLA-C*03:04 (Homo sapiens, UniProt P10321, A176E/A330V/A97T/C25G/C350S/D114A/D33Y/E197K/L119I/L127V/L171W/L218V/M285V/M309V/M331V/P208H/Q277E/Q291P/R243W/R45H/S123Y/S140Y/S297R/S48A/T118I/T187L/T329A/T363A/V319A); assay: HLA-C*03:04 stabilization assay on peptide-pulsed TAP-blocked 721.221-ICP47-C*03:04 cells (W6/32 staining, flow cytometry); assay type: cell-based; conditions: for HLA-C*03:04 stabilization, mean relative fluorescence intensity / HLA-C*03:04 stabilization, mean relative fluorescence intensity, titration: mean ± SD; for HLA-C*03:04 stabilization, mean relative fluorescence intensity: n = 3; for HLA-C*03:04 stabilization, mean relative fluorescence intensity (RFI): 100 μM peptide (saturating), 20 h at 26°C, gMFI with peptide divided by gMFI without peptide, mean ± SD of five experiments; for HLA-C*03:04 stabilization, mean relative fluorescence intensity, titration: serial peptide dilutions, non-saturating levels
[1] = molecular target: biotinylated HLA-C*03:04 monomer refolded with … (human | not stated | HIV-1 clade C); assay: SPR; Biacore 3000; […]) 10 μg/ml in PBS, 60 μl at 20 μl/min; HBS-EP; 25°C; […]
[2] = test system: primary KIR2DL3− NK cells; assay: Primary NK cell degranulation (CD107a) against peptide-pulsed 721.221-ICP47-C*03:04 cells, KIR2DL3− subset; assay type: cell-based, human; conditions: % CD107a+ NK cells divided by % with GKL control peptide; effector:target 1:5, 6 h at 26°C; mean ± SEM, nine donors
Procedure: (§1) To determine activation of primary NK cells following exposure to target cells pulsed with different peptide variants, NK cell degranulation assays measuring CD107a expression were performed using freshly isolated and purified NK cells from nine healthy KIR2DL3+ individuals. Primary NK cells were isolated by incubating whole blood with RosetteSep Human NK Cell Enrichment Cocktail (Stemcell Technologies) for 20 min at room temperature, followed by Histopaque-1077 (Sigma) density gradient centrifugation. NK cells were rested overnight in RPMI medium 1640 (Sigma-Aldrich) supplemented with 10% heat-inactivated fetal calf serum (Sigma-Aldrich), 2,500 U/ml penicillin, 2,500 μg/ml streptomycin, […] L-glutamine (Cellgro), and 1.0 ng/ml IL-15 (Cellgro). Subsequently, NK cells (1 × 10^5) were co-incubated with peptide-pulsed 721.221-ICP47-C*03:04 cells (5 × 10^5) at an effector:target ratio of 1:5 in RPMI containing anti-human CD107a-PE-Cy7 (12.5 μl/ml) and monensin (1.5 μl/ml, BD GolgiStop). Cells were incubated for 6 h at 26°C in 5% CO2. Cells were stained with 7AAD, anti-CD3-PB, anti-CD16-BV785, anti-CD56-BV605, anti-CD14/19-BV510, anti-KIR2DL2/3-PE, and anti-KIR2DL3-APC, washed, fixed with 4% (w/v in PBS) paraformaldehyde (Affymetrix), and analyzed by multiparameter flow cytometry using a BD LSR II.
Flow cytometry data were analyzed using FlowJo software version 10.0.6 (Tree Star), and statistical analysis was performed using GraphPad Prism 6 (GraphPad Software). HLA stabilization values are shown as mean relative fluorescence intensity; error bars represent standard deviation (SD). Relative fluorescence intensity was calculated by dividing the geometric mean fluorescence intensity (gMFI) of HLA expression in the presence of the tested peptide by the gMFI of stained target cells without peptide added in each respective assay. Binding of KIR2DL3-Fc is represented as percent of KIR2DL3+ cells ± SD. […]

[3] = test system: primary KIR2DL3+ NK cells; assay: Primary NK cell degranulation (CD107a) against peptide-pulsed 721.221-ICP47-C*03:04 cells, KIR2DL3+ subset; assay type: cell-based, human; conditions: for Relative degranulation of KIR2DL3+ NK cells (CD107a): % CD107a+ NK cells divided by % with GKL control peptide, effector:target 1:5, 6 h at 26°C, mean ± SEM, nine donors; for KIR2DL3+ NK Cell Activity (Mean ± SEM): ratio of percent CD107a+ KIR2DL3+ NK cells with variant peptide to that with wild-type peptide
Procedure: as §1
Flow cytometry data were analyzed using FlowJo software version 10.0.6 (Tree Star), and statistical analysis was performed using GraphPad Prism 6 (GraphPad Software). HLA stabilization values are shown as mean relative fluorescence intensity; error bars represent standard deviation (SD). Relative fluorescence intensity was calculated by dividing the geometric mean fluorescence intensity (gMFI) of HLA expression in the presence of the tested peptide by the gMFI of stained target cells without peptide added in each respective assay. Binding of KIR2DL3-Fc is represented as percent of KIR2DL3+ cells ± SD. […] A repeated-measures one-way ANOVA was subsequently performed to compare the responses between the wild-type group and the groups of the two variant peptides, for the KIR2DL3+ and KIR2DL3− NK cells, respectively. This was followed by a Tukey’s post hoc test. Each individual was sampled one time.

KIR2DL3 = molecular target: T1, KIR2DL3 (Homo sapiens, UniProt P43628); assay: KIR2DL3-Fc binding to peptide-pulsed 721.221-ICP47-C*03:04 cells (flow cytometry); conditions: for KIR2DL3-Fc binding, percent of cells binding KIR2DL3-Fc: cells pulsed with 100 μM peptide for 20 h, 2.5 μg KIR2DL3-Fc, 1 h on ice, mean ± SD of six independent experiments; for KIR2DL3-Fc Binding (Mean ± SD): ratio of percent KIR2DL3-Fc binding of variant peptide to that of wild-type peptide TGag303
T1 construct: purchased R&D Systems (KIR2DL3-Fc); Immudex (HLA-C*03:04/peptide monomers)

[4] = 0.1 μM peptide (non-saturating)

T1 sequence (P43628 with tags, fused parts or gaps limits assumed): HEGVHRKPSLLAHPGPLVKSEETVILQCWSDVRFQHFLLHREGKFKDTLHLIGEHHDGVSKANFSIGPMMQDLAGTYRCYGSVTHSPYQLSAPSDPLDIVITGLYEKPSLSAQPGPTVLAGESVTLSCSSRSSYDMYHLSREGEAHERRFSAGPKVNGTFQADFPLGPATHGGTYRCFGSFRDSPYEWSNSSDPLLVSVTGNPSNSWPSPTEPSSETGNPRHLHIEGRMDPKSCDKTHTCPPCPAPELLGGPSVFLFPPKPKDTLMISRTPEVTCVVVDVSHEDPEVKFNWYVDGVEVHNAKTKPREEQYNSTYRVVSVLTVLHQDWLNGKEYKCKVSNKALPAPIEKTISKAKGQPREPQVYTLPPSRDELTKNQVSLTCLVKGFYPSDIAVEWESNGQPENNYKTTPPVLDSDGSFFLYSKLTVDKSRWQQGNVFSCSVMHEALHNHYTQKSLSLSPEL
recombinant human KIR2DL3-IgG-Fc chimera, sequence (P43628 22-245, change not shown): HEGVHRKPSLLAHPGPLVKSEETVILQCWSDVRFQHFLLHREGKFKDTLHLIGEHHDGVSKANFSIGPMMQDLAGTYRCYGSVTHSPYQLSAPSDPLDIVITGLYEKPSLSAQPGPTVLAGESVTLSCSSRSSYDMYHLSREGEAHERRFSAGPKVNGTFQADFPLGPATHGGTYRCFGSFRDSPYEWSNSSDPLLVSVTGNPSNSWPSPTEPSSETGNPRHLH

Substance	HLA-C*03:04 stabilization, mean relative fluorescence intensity (HLA-C*03:04; [4])	HLA-C*03:04 stabilization, mean relative fluorescence intensity (HLA-C*03:04; 1 μM peptide (non-saturating))	Kd [1]	Relative degranulation of KIR2DL3− NK cells (CD107a) [2]	HLA-C*03:04 stabilization, mean relative fluorescence intensity (RFI) (HLA-C*03:04)	HLA-C*03:04 stabilization, mean relative fluorescence intensity, titration (HLA-C*03:04)	Relative degranulation of KIR2DL3+ NK cells (CD107a) [3]	KIR2DL3+ NK Cell Activity (Mean ± SEM) [3]	KIR2DL3-Fc binding, percent of cells binding KIR2DL3-Fc (KIR2DL3) [%]	KIR2DL3-Fc Binding (Mean ± SD) (KIR2DL3)	KIR2DL3 binding (in words) (KIR2DL3; HLA-C*03:04 stabilized at similar levels, used as negative control)
RALGPAATL	1.29 ± 0.19	2.72 ± 0.81	–	–	–	–	–	–	–	–	–
recombinant human KIR2DL3-IgG-Fc chimera (from UniProt P43628) (Fc fusion)	–	–	93 nM and 77 nM	–	–	–	–	–	–	–	–
YVDRFFKVL [TGag303V]	–	–	–	1.04 ± 0.05	3.40 ± 0.74	2.17 ± 1.36	0.63 ± 0.07	0.76 ± 0.08	44.67 ± 14.42	2.74 ± 0.66	–
YVDRFFKTL [TGag303]	–	–	–	1.06 ± 0.04	3.24 ± 0.64	2.60 ± 1.45	0.78 ± 0.07	–	18.01 ± 10.45	–	–
YVDRFFKAL [TGag303A]	–	–	–	1.06 ± 0.04	3.17 ± 0.53	1.84 ± 0.79	0.89 ± 0.05	1.36 ± 0.33	15.46 ± 7.24	0.90 ± 0.17	–
RALGPGATL	2.26 ± 0.39	4.24 ± 0.46	–	–	–	–	–	–	–	–	–
GAVDPLLKL [GKL, reference compound]	–	–	–	–	–	–	–	1.70 ± 0.3	–	0.06 ± 0.03	did not allow for KIR2DL3 binding
